Results from ChEMBL document CHEMBL1155491, “Acylurea connected straight chain hydroxamates as novel histone deacetylase inhibitors: Synthesis, SAR, and in vivo antitumor activity” (Bioorg Med Chem Lett, 2010).
≈ marks a conversion by molar mass, not a printed value. Calls of active or inactive are those of the source. The rule behind the calls is not given here.

Columns and labels:
[1] = target: T1, Histone deacetylase 1 (Homo sapiens, UniProt Q13547)
[2] = Half life in rat liver microsome; assay type: ADME; conditions: liver microsomes
[3] = target: T1, Histone deacetylase 1; test: Inhibition of HDAC1 in human COLO205 cells assessed as induction of histone H3 acetylation at 10 uM by Western-immuno blotting; assay type: cell-based; conditions: COLO 205
[4] = Apparent permeability from apical to basolateral side of Caco-2 cells; assay type: ADME, cell-based; conditions: human
[5] = Octanol-water distribution coefficient, log D of the compound; assay type: physicochemical
[6] = target: Histone deacetylase 5 (Homo sapiens, UniProt Q9UQL6); test: Inhibition of HDAC5
[7] = target: T2, Histone deacetylase 8 (Homo sapiens, UniProt Q9BY41); test: Inhibition of HDAC8
T2 sequence (Q9BY41 whole entry): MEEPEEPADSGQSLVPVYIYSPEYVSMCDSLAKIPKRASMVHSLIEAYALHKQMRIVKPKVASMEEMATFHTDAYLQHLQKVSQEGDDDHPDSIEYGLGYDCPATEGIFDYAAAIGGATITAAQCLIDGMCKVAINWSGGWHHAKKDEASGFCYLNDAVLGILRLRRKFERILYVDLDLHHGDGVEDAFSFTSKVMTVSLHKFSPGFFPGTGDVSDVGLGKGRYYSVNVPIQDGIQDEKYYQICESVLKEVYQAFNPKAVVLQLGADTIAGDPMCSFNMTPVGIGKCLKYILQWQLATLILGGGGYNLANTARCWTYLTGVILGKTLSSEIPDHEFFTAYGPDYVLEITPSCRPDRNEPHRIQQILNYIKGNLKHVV

[8] = Toxicity in human PC3 cells xenografted nude mouse; assay type: organism-based, PC-3; conditions: in vivo
[9] = Half life in mouse liver microsome; assay type: ADME; conditions: liver microsomes
[10] = system: PC-3; test: Antiproliferative activity against human PC3 cells; assay type: functional, cell-based
[11] = system: A2780; test: Antiproliferative activity against human A2780 cells; assay type: functional, cell-based
[12] = target: Histone deacetylase 4 (Homo sapiens, UniProt P56524); test: Inhibition of HDAC4
[13] = Thermodynamic solubility at pH 7.4; assay type: physicochemical; conditions: buffer, read-out: Therm_solubility
[14] = Solubility at pH 7; assay type: physicochemical; conditions: buffer
[15] = system: HCT-116; test: Antitumor activity against human HCT116 cells xenografted in BALB/c mouse at 100 mg/kg, po after 21 days; assay type: functional; conditions: HCT-116, 504 h, read-out: TGI
[16] = target: T3, Protein deacetylase HDAC6 (Homo sapiens, UniProt Q9UBN7); test: Inhibition of HDAC6
T3 sequence (Q9UBN7 whole entry): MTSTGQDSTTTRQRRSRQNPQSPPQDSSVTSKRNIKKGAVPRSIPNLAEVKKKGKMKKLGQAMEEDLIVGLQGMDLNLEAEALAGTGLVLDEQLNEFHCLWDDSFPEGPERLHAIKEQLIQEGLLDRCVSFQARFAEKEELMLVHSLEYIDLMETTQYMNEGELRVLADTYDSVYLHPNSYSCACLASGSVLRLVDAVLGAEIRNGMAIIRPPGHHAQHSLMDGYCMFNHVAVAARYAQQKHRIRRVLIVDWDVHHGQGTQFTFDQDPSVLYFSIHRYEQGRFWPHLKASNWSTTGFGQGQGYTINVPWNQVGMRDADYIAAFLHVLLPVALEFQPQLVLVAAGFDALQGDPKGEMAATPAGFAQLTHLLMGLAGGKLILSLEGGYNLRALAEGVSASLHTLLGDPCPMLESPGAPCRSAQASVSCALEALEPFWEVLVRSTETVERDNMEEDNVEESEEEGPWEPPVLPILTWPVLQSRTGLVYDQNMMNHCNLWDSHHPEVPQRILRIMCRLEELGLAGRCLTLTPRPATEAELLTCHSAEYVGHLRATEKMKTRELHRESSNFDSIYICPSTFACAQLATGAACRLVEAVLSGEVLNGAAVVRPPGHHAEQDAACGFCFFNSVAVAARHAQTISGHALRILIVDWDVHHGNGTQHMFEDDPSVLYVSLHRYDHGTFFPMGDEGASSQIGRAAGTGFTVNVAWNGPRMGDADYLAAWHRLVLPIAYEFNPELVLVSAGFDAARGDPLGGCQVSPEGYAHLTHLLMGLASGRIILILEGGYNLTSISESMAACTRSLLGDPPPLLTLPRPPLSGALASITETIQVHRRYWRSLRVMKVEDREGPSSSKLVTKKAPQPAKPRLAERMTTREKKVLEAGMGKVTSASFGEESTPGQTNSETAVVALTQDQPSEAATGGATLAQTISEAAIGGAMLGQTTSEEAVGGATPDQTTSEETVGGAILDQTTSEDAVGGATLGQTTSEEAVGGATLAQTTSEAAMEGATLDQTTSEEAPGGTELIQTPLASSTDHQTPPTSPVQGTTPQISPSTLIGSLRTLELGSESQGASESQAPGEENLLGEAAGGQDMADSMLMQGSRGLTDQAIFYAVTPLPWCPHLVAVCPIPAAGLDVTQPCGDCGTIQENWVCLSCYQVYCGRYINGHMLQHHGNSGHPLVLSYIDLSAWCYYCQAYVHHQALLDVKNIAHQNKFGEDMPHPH

[17] = system: PC-3; test: Antitumor activity against human PC3 cells xenografted in nude mouse assessed as inhibition of tumor growth at 200 mg/kg, ip administered for 21 days measured or day 22; assay type: functional; conditions: PC-3, ip, route intraperitoneal, read-out: TGI
[18] = target: T4, Histone deacetylase 11 (Homo sapiens, UniProt Q96DB2); test: Inhibition of HDAC11
T4 sequence (Q96DB2 whole entry): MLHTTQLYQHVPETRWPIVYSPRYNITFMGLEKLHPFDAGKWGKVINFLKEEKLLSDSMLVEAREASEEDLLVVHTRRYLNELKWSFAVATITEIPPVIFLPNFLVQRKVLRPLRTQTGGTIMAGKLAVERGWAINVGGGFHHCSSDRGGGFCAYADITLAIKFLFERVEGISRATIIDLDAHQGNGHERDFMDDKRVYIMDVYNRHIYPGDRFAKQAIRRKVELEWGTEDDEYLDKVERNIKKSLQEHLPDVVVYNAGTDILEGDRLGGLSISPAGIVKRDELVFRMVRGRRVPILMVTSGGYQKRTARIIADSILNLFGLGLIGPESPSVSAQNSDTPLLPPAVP

[19] = Clearance in mouse at 10 mg/kg, iv; assay type: ADME, organism-based; design: dose 10 mg/kg, route intravenous; conditions: in vivo
[20] = target: T1, Histone deacetylase 1; remark: listed apart in the source
[21] = Cmax in mouse plasma at 50 mg/kg, po; assay type: ADME, organism-based; design: dose 50 mg/kg, route oral
[22] = target: Histone deacetylase 3 (Homo sapiens, UniProt O15379); test: Inhibition of HDAC3
[23] = target: Histone deacetylase 2 (Homo sapiens, UniProt Q92769)
[24] = Half life in human liver microsome; assay type: ADME; conditions: liver microsomes

T1 sequence (Q13547 whole entry): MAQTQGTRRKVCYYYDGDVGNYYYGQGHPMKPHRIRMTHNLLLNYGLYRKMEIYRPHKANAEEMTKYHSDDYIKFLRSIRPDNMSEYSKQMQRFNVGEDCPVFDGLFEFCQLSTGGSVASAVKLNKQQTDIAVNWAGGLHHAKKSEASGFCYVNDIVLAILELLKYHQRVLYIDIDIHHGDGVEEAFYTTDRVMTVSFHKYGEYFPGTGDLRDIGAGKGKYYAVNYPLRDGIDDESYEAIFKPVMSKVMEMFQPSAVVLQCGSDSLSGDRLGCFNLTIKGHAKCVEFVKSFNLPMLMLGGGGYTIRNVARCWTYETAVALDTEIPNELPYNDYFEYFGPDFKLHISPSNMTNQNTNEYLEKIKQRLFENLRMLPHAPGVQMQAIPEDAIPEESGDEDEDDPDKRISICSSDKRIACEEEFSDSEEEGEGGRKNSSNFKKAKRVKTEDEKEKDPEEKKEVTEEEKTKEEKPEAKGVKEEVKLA
Histone deacetylase 5, sequence (Q9UQL6 whole entry): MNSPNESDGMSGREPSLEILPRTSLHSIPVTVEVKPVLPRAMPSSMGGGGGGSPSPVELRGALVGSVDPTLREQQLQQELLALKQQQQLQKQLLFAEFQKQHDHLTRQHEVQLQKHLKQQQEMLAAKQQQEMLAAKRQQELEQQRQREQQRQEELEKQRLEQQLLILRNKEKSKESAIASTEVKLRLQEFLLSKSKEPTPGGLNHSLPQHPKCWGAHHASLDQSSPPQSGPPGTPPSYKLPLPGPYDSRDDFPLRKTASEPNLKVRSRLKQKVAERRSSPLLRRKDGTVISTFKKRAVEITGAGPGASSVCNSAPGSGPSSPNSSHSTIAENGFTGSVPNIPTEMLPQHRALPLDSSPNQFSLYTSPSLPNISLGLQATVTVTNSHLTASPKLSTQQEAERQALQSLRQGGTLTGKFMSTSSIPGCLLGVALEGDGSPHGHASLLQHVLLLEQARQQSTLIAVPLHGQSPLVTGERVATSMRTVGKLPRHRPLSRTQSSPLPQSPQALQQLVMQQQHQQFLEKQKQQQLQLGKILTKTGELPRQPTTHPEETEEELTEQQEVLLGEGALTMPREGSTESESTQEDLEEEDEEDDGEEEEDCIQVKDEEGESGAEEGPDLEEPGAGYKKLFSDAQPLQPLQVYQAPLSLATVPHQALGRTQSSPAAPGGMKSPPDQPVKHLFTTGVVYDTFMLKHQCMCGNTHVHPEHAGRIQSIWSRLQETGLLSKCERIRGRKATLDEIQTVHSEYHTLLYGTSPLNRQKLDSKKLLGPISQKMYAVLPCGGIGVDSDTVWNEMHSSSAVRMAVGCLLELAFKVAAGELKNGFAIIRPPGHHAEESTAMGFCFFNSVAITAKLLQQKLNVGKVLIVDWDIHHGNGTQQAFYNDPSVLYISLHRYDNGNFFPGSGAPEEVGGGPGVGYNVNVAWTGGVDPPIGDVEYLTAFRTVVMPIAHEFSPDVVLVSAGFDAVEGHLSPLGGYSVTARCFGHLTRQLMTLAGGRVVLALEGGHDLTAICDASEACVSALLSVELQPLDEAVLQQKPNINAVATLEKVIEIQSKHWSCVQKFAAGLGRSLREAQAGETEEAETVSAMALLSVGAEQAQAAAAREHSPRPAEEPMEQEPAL
Histone deacetylase 2, sequence (Q92769 whole entry): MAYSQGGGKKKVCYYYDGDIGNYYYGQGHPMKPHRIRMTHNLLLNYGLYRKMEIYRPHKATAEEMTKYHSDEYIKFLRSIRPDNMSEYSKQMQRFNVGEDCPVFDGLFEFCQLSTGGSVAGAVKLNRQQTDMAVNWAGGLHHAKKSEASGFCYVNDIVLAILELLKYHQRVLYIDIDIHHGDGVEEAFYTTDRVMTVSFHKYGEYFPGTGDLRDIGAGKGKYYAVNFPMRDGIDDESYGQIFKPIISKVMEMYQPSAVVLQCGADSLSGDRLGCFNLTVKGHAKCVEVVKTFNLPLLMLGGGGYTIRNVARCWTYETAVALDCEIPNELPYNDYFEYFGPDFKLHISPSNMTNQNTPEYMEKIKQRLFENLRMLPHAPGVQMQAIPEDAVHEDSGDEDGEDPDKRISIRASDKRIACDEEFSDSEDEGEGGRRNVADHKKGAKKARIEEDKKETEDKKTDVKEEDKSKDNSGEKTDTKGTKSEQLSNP
Histone deacetylase 3, sequence (O15379 whole entry): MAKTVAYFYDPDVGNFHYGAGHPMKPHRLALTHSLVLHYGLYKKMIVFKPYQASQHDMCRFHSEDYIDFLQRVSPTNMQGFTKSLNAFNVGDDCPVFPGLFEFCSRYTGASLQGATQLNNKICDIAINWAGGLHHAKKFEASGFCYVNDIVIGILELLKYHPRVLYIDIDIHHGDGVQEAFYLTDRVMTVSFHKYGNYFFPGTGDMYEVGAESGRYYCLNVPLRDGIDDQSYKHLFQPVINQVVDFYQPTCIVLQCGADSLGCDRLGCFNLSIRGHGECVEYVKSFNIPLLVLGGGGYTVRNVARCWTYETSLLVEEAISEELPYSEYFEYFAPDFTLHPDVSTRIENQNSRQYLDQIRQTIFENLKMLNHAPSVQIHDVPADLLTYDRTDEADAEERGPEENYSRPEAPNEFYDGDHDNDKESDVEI
Histone deacetylase 4, sequence (P56524 whole entry): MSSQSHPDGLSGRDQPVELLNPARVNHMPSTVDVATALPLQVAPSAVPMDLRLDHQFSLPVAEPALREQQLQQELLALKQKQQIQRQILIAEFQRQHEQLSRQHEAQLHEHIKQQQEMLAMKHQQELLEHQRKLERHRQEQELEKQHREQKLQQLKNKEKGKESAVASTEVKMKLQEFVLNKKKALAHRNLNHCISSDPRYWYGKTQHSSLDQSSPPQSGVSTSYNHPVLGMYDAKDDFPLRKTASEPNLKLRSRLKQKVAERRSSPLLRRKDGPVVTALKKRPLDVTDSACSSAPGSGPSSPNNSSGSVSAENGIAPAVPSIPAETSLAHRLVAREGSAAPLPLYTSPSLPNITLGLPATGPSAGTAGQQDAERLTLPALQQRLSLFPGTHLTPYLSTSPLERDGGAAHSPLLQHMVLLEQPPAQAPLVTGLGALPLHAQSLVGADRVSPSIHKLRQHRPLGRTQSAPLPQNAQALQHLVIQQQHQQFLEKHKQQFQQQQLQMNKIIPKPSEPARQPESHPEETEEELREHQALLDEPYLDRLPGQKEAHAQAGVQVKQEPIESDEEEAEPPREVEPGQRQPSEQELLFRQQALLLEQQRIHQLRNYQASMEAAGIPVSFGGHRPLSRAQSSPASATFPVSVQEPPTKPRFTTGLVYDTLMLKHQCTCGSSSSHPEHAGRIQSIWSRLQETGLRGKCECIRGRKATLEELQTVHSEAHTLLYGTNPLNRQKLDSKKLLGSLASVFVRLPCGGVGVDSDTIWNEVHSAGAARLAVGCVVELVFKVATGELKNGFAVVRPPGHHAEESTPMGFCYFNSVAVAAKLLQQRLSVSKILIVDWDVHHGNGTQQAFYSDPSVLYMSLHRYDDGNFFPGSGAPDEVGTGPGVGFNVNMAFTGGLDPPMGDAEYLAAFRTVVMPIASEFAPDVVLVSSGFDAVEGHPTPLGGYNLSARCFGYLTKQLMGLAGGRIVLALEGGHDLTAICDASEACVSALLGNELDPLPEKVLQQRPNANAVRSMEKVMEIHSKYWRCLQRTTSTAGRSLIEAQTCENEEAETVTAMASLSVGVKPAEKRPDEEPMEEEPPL

O=C(CCCCCNC(=O)NC(=O)c1ccccc1)NO
IC50 [1]: 0.053 µM | Ki [1]: 0.016 µM | half-life [2]: > 1 h | Activity [3]: Active | Papp A→B [4]: 31.2 nm/s | logD [5]: 0.75 | Ki [6]: 0.046 µM | IC50 [7]: 0.608 µM | Ki [7]: 0.252 µM | MTD [8]: 200 mg/kg | half-life [9]: > 0.5 h | IC50 [10]: 0.74 µM | IC50 [11]: 0.7 µM | Ki [12]: 0.02 µM | solubility thermodynamic [13]: 0.526 mg/mL (≈ 1790 µM) | solubility [14]: 177 µM (≈ 51.9 µg/mL) | inhibition in vivo at 100 mg/kg [15]: 80% | Ki [16]: 0.007 µM | inhibition in vivo at 200 mg/kg [17]: 73% | Ki [18]: 0.039 µM | clearance [19]: 5.03 L/h/kg | IC50 [20]: 2.21 µM | Cmax [21]: 22.4 µM | Ki [22]: 0.023 µM | Ki [23]: 0.044 µM | half-life [24]: > 1 h
